Data taken from patent publication US5763587A, “Process for the synthesis of amikacin” (Gist Brocades Italy Spa, priority 1987, dated 1998).

How the values were obtained:
[1] = Comparison of death rate, toxicity and acute general tolerability in mice by intravenous administration; assay type: in vivo; settings: mouse, in vivo, iv, mice, intravenous (caudal vein), groups of 10 animals, Finney-Probits method
Description: (§1) Some experiments have been thus carried out for the comparison of the death rate, toxicity and acute general tolerability, between the product available in the market from Bristol Myers (BB-K8), amikacin produced according to the synthesis of the present invention and the potential impurities (BB K11, BB K29 and the diacylate with L-HABA at N-1 and N-3"), in mice by intravenous administration (caudal vein) to groups of 10 animals. The LD50 values have been calculated by the Finney-Probits method.

[2] = tested on: mice; assay: as above; assay type: in vivo
Description: as §1

NCC[C@H](O)C(=O)N[C@@H]1[C@@H](O)[C@@H](O[C@@H]2[C@@H](O)[C@H](O[C@H]3O[C@H](CN)[C@@H](O)[C@H](O)[C@H]3O)[C@@H](N)C[C@H]2N)O[C@H](CO)[C@H]1O [BB-K11]
LD50 [1]: 356 mg/kg | toxicity compared with BB-K29 (in words) [2]: lower

NCC[C@H](O)C(=O)N[C@@H]1[C@@H](O)[C@@H](O[C@@H]2[C@@H](O)[C@H](O[C@H]3O[C@H](CN)[C@@H](O)[C@H](O)[C@H]3O)[C@@H](N)C[C@H]2NC(=O)[C@@H](O)CCN)O[C@H](CO)[C@H]1O [Diacylate (N-1 and N-3")]
LD50 [1]: 268 mg/kg | toxicity compared with BB-K29 (in words) [2]: lower

NCC[C@H](O)C(=O)N[C@H]1C[C@@H](N)[C@H](O[C@H]2O[C@H](CO)[C@@H](O)[C@H](N)[C@H]2O)[C@@H](O)[C@@H]1O[C@H]1O[C@H](CN)[C@@H](O)[C@H](O)[C@H]1O [BB-K29]
LD50 [1]: 126 mg/kg | toxicity compared with amikacin (in words) [2]: more toxic than amikacin

NCC[C@H](O)C(=O)N[C@@H]1C[C@H](N)[C@@H](O[C@H]2O[C@H](CN)[C@@H](O)[C@H](O)[C@H]2O)[C@H](O)[C@H]1O[C@H]1O[C@H](CO)[C@@H](O)[C@H](N)[C@H]1O [BB-K8 Bristol]
LD50 [1]: 202 mg/kg

NCC[C@H](O)C(=O)N[C@@H]1C[C@H](N)[C@@H](O[C@H]2O[C@H](CN)[C@@H](O)[C@H](O)[C@H]2O)[C@H](O)[C@H]1O[C@H]1O[C@H](CO)[C@@H](O)[C@H](N)[C@H]1O [Amikacin, 0-3-amino-3-desoxy-alpha-D-glucopyranosyl-(1→6)-0-[6--amino-6-desoxy-alpha-D-glucopyranosyl-(1→)]-N^1-(4-amino-2-hydroxy-1-oxybutyl)-2-desoxy-D-streptamine]
LD50 ([2]; mice, intravenous (caudal vein), groups of 10 animals, Finney-Probits method): 241 mg/kg
